Measurements: patent US8242113B2, “Oxazolidinone derivatives with cyclic amidoxime or cyclic amidrazone pharmaceutical compositions thereof” (Legochem Biosciences, Inc., priority 2008, dated 2012)
Converted amounts (≈) assume the structure as drawn.

Columns and labels:
[1] = target: T1, monoamine oxidase B (MAO B) (Homo sapiens, UniProt P27338); experiment: MAO inhibition (MAO-GLO assay); type: biochemical; settings: MAO-GLO kit, compounds at 3.9-500 uM; read-out: MAOB
T1 construct: purchased Sigma-Aldrich (USA)
T1 sequence (P27338 1-520): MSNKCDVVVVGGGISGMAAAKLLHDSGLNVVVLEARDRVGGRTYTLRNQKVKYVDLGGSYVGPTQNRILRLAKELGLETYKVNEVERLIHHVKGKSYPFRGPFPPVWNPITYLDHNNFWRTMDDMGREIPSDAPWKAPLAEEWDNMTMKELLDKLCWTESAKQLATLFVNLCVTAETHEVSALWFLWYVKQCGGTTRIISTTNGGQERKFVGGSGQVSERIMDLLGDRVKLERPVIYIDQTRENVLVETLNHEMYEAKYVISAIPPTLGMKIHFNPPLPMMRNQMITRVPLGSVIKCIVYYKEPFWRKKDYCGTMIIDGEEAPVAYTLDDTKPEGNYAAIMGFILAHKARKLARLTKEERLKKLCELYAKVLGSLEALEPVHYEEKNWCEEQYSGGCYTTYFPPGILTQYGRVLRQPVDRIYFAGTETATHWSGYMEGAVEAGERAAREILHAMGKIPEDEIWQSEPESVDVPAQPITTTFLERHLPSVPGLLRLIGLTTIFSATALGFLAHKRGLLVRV
Description: (§1) The oxazolidinone derivatives according to the present invention synthesized in the examples were tested for inhibition of monoamine oxidase A (MAO A) and monoamine oxidase B (MAO B). MAO-GLO assay kit was purchased from Promega (USA) and MAO A and MAO B enzymes were purchased from Sigma-Aldrich (USA). From the aldehyde product resulting from the action of the MAO enzyme on the amine group of the substrate, luciferin methyl ester is produced. The luciferin detection reagent is then added to inactivate the MAO enzymes. The esterase and the luciferase included in the reagent oxidize luciferin, thereby emitting light. The light emission is detected to measure the activity of MAO. The light emission was detected using LEADseeker (Amershan Bioscience, Sweden). MAO activity was measured in the presence of the compounds according to the present invention at 3.9-500 uM and compared with the non-treated control group. Linezolid was used as a comparison compound. For the measurement of the MAO inhibition activity of the compounds represented by Chemical Formula 1, the IC50 value, i.e., the concentration of the compounds at which the enzymatic activity is inhibited by 50% (This value is related with the inhibition constant Ki), can be determined. The concentration of the inhibitor at which the rate of hydrolysis of the substrate is reduced to 50% (i.e., the IC50 value) can be determined from a log plot of the relative rate of hydrolysis (as compared to the non-inhibited control group) versus the concentration of the compounds of Chemical Formula 1.
(§2) The MAO inhibition effect of the compounds of Chemical Formula 1 was measured by determining the inhibition constant Ki. Ki=IC50/{1+(┌S┐/Km)} Equation 1
(§3) In Equation 1, Km is the Michaelis-Menten constant, i.e., the concentration of the substrate at which the rate of enzymatic reaction is half of the maximum, and IC50 is the concentration of the inhibitor at which the rate of the hydrolysis of the substrate is reduced by 50%. The IC50 value was measured by plotting a log plot of the relative rate of hydrolysis (as compared to the non-inhibited control group) versus the concentration of the compounds of Chemical Formula 1. GraFit statistical analysis program (version 5.0.12) purchased from Erithacus Software was used.

[2] = target: T2, monoamine oxidase A (MAO A) (Homo sapiens, UniProt P21397); experiment: MAO inhibition (MAO-GLO assay); type: biochemical; settings: MAO-GLO kit, compounds at 3.9-500 uM; read-out: MAOA
T2 construct: purchased Sigma-Aldrich (USA)
T2 sequence (P21397 1-527): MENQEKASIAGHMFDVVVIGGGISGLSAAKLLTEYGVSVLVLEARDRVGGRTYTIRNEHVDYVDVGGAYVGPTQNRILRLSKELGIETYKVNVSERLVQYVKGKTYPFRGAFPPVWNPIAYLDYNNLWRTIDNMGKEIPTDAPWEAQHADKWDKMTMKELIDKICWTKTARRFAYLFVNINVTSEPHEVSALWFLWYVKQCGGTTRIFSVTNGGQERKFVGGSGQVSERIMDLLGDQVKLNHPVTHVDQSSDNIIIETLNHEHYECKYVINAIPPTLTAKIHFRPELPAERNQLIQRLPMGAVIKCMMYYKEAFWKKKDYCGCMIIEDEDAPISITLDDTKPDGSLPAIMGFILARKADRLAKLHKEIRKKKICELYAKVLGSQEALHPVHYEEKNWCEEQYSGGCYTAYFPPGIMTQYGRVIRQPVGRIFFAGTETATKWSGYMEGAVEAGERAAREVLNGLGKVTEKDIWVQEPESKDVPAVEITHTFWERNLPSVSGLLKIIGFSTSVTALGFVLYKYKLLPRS
Description: as §1, §2, §3

[3] = tested on: methicillin-resistant Staphylococcus aureus (MRSA); experiment: In vitro antibacterial activity, broth microdilution (MIC90); settings: read-out: Antibacterial activity MIC90, MRSA
Description: (§4) MIC90 measurement was made according to the broth microdilution method based on the CLSI document [Clinical and Laboratory Standards Institute Document.
(§5) The test compounds in DMSO solution were further diluted 20-fold with sterile distilled water.

[4] = Cytotoxicity measurement by MTT assay; type: cell-based; settings: Chinese hamster
Text: The MTT assay is a […], colorimetric assay for mammalian cell survival and cell proliferation. It depends on the reduction of tetrazolium salt MTT by the mito-chondrial succinate dehrogenase of viable cells to form a blue formazan product. The assay measures cell respiration, and the amount of formazan product to the number of living cells present in culture. In this test, Chinese hamster ovary cells (CHO-K1) were purchased from ATCC (USA). Subcultured CHO cells were detached from the culture flask by treating with trypsin-EDTA solution, and seeded on a 96-well microplate, with 5000 cells per each well. After culturing for 24 hours in a 37° C., 5% CO2 incubator, the cells were treated with the oxazolidinone derivatives according to the present invention synthesized in the above examples, at 7 different concentrations. After further culturing for 48 hours in a 37° C., 5% CO2 incubator, 15 uL of […] MTT solution was added to each well. The cells were further incubated in the 37° C., 5% CO2 incubator for about 2 hours. Then, the culture medium was discarded and 100 uL of DMSO solution was added to each well. After agitating the microplate for 30 minutes, absorbance was measured at 550 nm using Spectramax plus 190 plate reader (Molecular Devices, USA). The absorbance decrease of the compound-treated groups compared to the non-treated control group is an indication of the decrease of surviving cells, which enables the measurement of the cytotoxicity of the compounds. The CC50 value, i.e., the concentration at which the cell proliferation is reduced to 50%, of the compounds according to the present invention was computed using the GraFit statistical analysis program (version 5.0.12) purchased from Erithacus Software after calculating the percentages of the absorbance at various concentrations as compared to the control group.

[5] = tested on: linezolid- and vancomycin-resistant Enterococcus faecalis (LVRE); experiment: In vitro antibacterial activity, broth microdilution (MIC90); settings: read-out: Antibacterial activity MIC90, LVRE
Description: as §4, §5

Compound	IC50 [1] [µM]	IC50 [2] [µM]	MIC90 [3] [µg/mL]	MIC90 [5] [µg/mL]	MIC [5] [µg/mL]	CC50 at 48 h [4] [µM]
CCNC(=O)NC[C@H]1CN(c2ccc(N3C=NN(C=O)CC3)c(F)c2)C(=O)O1 [Compound 44]	–	–	8 (≈ 20.4 µM)	–	64 (≈ 163 µM)	–
CC(=O)NC[C@H]1CN(c2ccc(N3C=NN(C(C)=O)CC3)c(F)c2)C(=O)O1 [Compound 10]	–	–	4 (≈ 10.6 µM)	–	32 (≈ 84.8 µM)	–
COC(=S)NC[C@H]1CN(c2ccc(N3C=NOCC3)c(F)c2)C(=O)O1 [Compound 57]	–	–	0.25 (≈ 0.679 µM)	–	2 (≈ 5.43 µM)	–
CC(=O)NC[C@H]1CN(c2ccc(N3C=NN(S(C)(=O)=O)CC3)c(F)c2)C(=O)O1 [Compound 18]	–	–	4 (≈ 9.68 µM)	–	16 (≈ 38.7 µM)	–
CC(=O)NC[C@H]1CN(c2ccc(N3C=NN(C(=O)CC#N)CC3)c(F)c2)C(=O)O1 [Compound 11]	–	–	1 (≈ 2.49 µM)	–	8 (≈ 19.9 µM)	–
C=C(Cl)CN1CCN(c2ccc(N3C[C@H](CNC(=S)OC)OC3=O)cc2F)C=N1 [Compound 66]	–	–	0.5 (≈ 1.13 µM)	–	4 (≈ 9.05 µM)	–
CC(=O)NC[C@H]1CN(c2ccc(N3C=NN(CCO)CC3)c(F)c2)C(=O)O1 [Compound 27]	–	–	4 (≈ 10.5 µM)	–	64 (≈ 169 µM)	–
CN1CCN(c2c(F)cc(N3C[C@H](CNc4ccon4)OC3=O)cc2F)C=N1 [Compound 106]	–	–	0.5 (≈ 1.27 µM)	–	16 (≈ 40.8 µM)	–

More lines, main results first:

IC50 [1] [µM]	IC50 [2] [µM]	MIC90 [3] [µg/mL]	MIC90 [5] [µg/mL]	MIC [5] [µg/mL]	Compound	CC50 at 48 h [4] [µM]
4.3	7.9	2 (≈ 5.93 µM)	32 (≈ 94.9 µM)	–	CC(=O)NC[C@H]1CN(c2ccc(N3CCOCC3)c(F)c2)C(=O)O1 [Linezolid, linezolid, reference compound]	> 130
6.1	< 2	–	–	–	Cn1nnc(-c2ccc(-c3ccc(N4C[C@H](CO)OC4=O)cc3F)cn2)n1 [TR-700, reference compound]	28
84	89	0.25 (≈ 0.713 µM)	–	4 (≈ 11.4 µM)	COC(=S)NC[C@H]1CN(c2ccc(N3C=NOCC3)cc2)C(=O)O1 [Compound 102]	> 130
–	–	8 (≈ 20.6 µM)	–	32 (≈ 82.4 µM)	N#CCC(=O)NC[C@H]1CN(c2ccc(N3C=NN(C=O)CC3)c(F)c2)C(=O)O1 [Compound 42]	–
–	–	4 (≈ 9.79 µM)	–	8 (≈ 19.6 µM)	CCNC(=S)NC[C@H]1CN(c2ccc(N3C=NN(C=O)CC3)c(F)c2)C(=O)O1 [Compound 56]	–
–	–	0.5 (≈ 1.39 µM)	–	8 (≈ 22.2 µM)	O=C1O[C@@H](CNc2ccon2)CN1c1ccc(N2C=NNCC2)c(F)c1 [Compound 86]	–
–	–	2 (≈ 4.77 µM)	–	8 (≈ 19.1 µM)	CC#CCN1CCN(c2ccc(N3C[C@H](CNC(=S)OC)OC3=O)cc2F)C=N1 [Compound 64]	–
–	–	0.5 (≈ 1.1 µM)	–	4 (≈ 8.82 µM)	COC(=S)NC[C@H]1CN(c2ccc(N3C=NN(CCOC(C)=O)CC3)c(F)c2)C(=O)O1 [Compound 71]	–
–	–	1 (≈ 2.75 µM)	–	16 (≈ 44 µM)	COC(=S)NC[C@H]1CN(c2ccc(N3C=NN(C)CC3)cc2)C(=O)O1 [Compound 98]	–
